Experimental data reported in patent publication US20160311795A1, “PYRIMIDINE DIAMINE DERIVATIVES AS INHIBITORS OF CYTOSOLIC HSP90” (CALASIA PHARMACEUTICALS, INC., priority 2012, published 2016).
Read-outs that look alike come from different tables or passages of the source.

Target: T1, human full length Hsp90 (Homo sapiens, UniProt P07900)
T1 construct: amino acid residues 1 to 732 of human Hsp90 (GenBank: BC121062.2); made in house; host or cells: E. coli BL21DE3 (pET15b)
Test: Fluorescence polarization Hsp90 competitive binding assay (GM-FITC displacement)
Conditions: for inhibition at 10 µM: compound at 10 μM, read-out: Biochemical Potency % Inhibition at 10 μM; for inhibition at 1 µM: compound at 1 μM, read-out: Biochemical Potency % Inhibition at 1 μM
Method: Hsp90 binding assays was performed generally according to the procedure described in J. Biomol. […] Hsp90 inhibitors were solubilized in DMSO at a stock concentration of 50 mM. […] Eighty five μl of binding assay buffer (20 mM HEPES, pH-7.5, 50 mM KCl, 5 mM MgCl2, 20 mM sodium molybdate, 0.01% NP-40, 2 mM DTT, and 0.1 mg/ml BSA) was added to the wells of a 96 well black plate placed on ice. […] Next, 10 μl either binding assay buffer alone (control) or human full length Hsp90 protein diluted in the binding assay buffer was added to achieve a final concentration of 50 nM. The plates were incubated at 4° C. on a plate shaker for 24 h. Two μl of 50× GM-FITC (9 nM final) in DMSO was added to all wells and the plate was incubated at ambient temperature for 1 h with shaking. Fluorescence polarization readings were taken in duplicate at excitation and emission wavelengths of 480 nm and 500 nm respectively. Specific binding was calculated by subtracting polarization values in the presence of Hsp90 from those in the absence of Hsp90. To calculate percent inhibition the specific binding values obtained for GA-FITC in the presence of compound were compared to values for GA-FITC in the absence of compound (DMSO only).

[1] = Table II, binding affinities ranked by potency
[2] = Table II, binding affinities ranked by potency, read-out: IC50
[3] = Table 1, 50 nM Hsp90, 9 nM GM-FITC, read-out: Biochemical Potency IC50

Ki [1] [nM]	IC50 [2] [nM]	inhibition at 10 µM [%]	IC50 [3] [nM]	inhibition at 1 µM [%]	Compound
> 2500	> 10000	21	–	–	Nc1nc(Cl)cc(NCc2ccc(-c3ccccc3)cc2)n1 [SBI-0633826]
> 2500	> 10000	–	> 250000	–	COc1cc(NCc2cc(OC)c(OC)c(OC)c2)nc(N)n1 [SBI-0633825]
> 2500	> 10000	4	–	–	COc1ccc(CNc2cc(C(F)(F)F)nc(N)n2)c(OC)c1OC [SBI-0630180]
3480	13900	–	13900	–	COc1c(C)cnc(CN(C(=O)C(C)C)c2cc(Cl)nc(N)n2)c1C [SBI-0640644]
300	1200	93	–	47	Cc1cnc(CNc2cc(Cl)nc(N)n2)c(C)c1Cl [SBI-0639217, 6-Chloro-N4-((4-chloro-3,5-dimethylpyridin-2-yl)methyl)pyrimidine-2,4-diamine]
> 2500	> 10000	–	> 250000	–	COc1cc(CNc2ccnc(N)n2)cc(OC)c1OC [SBI-0634911]
78	311	–	311	–	COc1c(C)cnc(CN(CCc2ccc(Cl)cc2)c2cc(Cl)nc(N)n2)c1C [SBI-0640608, 6-Chloro-N4-(4-chlorophenethyl)-N4-((4-methoxy-3,5-dimethylpyridin-2-yl)methyl)pyrimidine-2,4-diamine]
> 2500	> 10000	17	–	–	Cc1cc(C)cc(CNc2cc(C(F)(F)F)nc(N)n2)c1 [SBI-0633823]
553	2210	–	2210	–	COc1c(C)cnc(CN(Cc2ccccc2)c2cc(Cl)nc(N)n2)c1C [SBI-0639351, N4-Benzyl-6-chloro-N4-((4-methoxy-3,5-dimethylpyridin-2-yl)methyl)pyrimidine-2,4-diamine]
> 2500	> 10000	10	–	5	COc1cccc2c1ccn2-c1cc(N)c(C(N)=O)c(NC2CCOCC2)c1 [SBI-0639186]
> 2500	> 10000	34	–	–	Nc1nc(Cl)cc(NCc2ccc(-c3ccc(Cl)cc3F)cc2)n1 [SBI-0638966]
368	1470	94	–	44	Cc1cnc(CNc2cc(Cl)nc(N)n2)c(C)c1Br [SBI-0639218, N4-((4-Bromo-3,5-dimethylpyridin-2-yl)methyl)-6-chloropyrimidine-2,4-diamine]
7500	30000	–	30000	–	CCCC(=O)N(Cc1ncc(C)c(OC)c1C)c1cc(Cl)nc(N)n1 [SBI-0640645]
> 2500	> 10000	10	–	–	COc1cc(CNc2nc(N)nc3[nH]ccc23)cc(OC)c1OC [SBI-0635446]
343	1370	–	1370	–	COc1c(C)cnc(CN(CCCO)c2cc(Cl)nc(N)n2)c1C [SBI-0639349, 3-((2-Amino-6-chloropyrimidin-4-yl)((4-methoxy-3,5-dimethylpyridin-2-yl)methyl)amino)propan-1-ol]
> 2500	> 10000	25	–	–	COc1cc(CNc2cc(Cl)nc(N)n2)cc(OC)c1OC [SBI-0206664]

Ki [1] [nM]	IC50 [2] [nM]	inhibition at 10 µM [%]	IC50 [3] [nM]	inhibition at 1 µM [%]	Compound
180	720	–	719	–	CCCCN(Cc1ncc(C)c(OC)c1C)c1cc(Cl)nc(N)n1 [SBI-0639354, N4-butyl-6-chloro-N4-((4-methoxy-3,5-dimethylpyridin-2-yl)methyl)pyrimidine-2,4-diamine]
> 8000	> 32000	–	≥ 32000	–	COc1c(C)cnc(CN(C(=O)CCCCl)c2cc(Cl)nc(N)n2)c1C [SBI-0639902, N-(2-Amino-6-chloropyrimidin-4-yl)-4-chloro-N-((4-methoxy-3,5-dimethylpyridin-2-yl)methyl)butanamide]
213	850	94	–	57	COc1c(C)cnc(CN(C)c2cc(Cl)nc(N)n2)c1C [SBI-0639219, 6-Chloro-N4-((4-methoxy-3,5-dimethylpyridin-2-yl)methyl)-N4-methylpyrimidine-2,4-diamine]
108	432	–	432	–	6-Chloro-N4-((4-methoxy-3,5-dimethylpyridin-2-yl)methyl)-N4-(3-methoxyphenethyl)pyrimidine-2,4-diamine [SBI-0640606]
> 8000	> 32000	–	≥ 32000	–	COc1c(C)cnc(CN(C(C)=O)c2cc(Cl)nc(N)n2)c1C [SBI-0640492]
> 8000	> 32000	–	≥ 32000	–	Cc1cnc(CN(C)c2cc(Cl)nc(N)n2)c(C)c1Br [SBI-0639900, N4-((4-Bromo-3,5-dimethylpyridin-2-yl)methyl)-6-chloro-N4-methylpyrimidine-2,4-diamine]
> 2500	> 10000	18	–	–	Nc1nc(Cl)cc(Nc2ccc3c(c2)OCO3)n1 [SBI-0636438]
110	440	98	–	66	Cc1cnc(CNc2cc(Cl)nc(N)n2)c(C)c1I [SBI-0639220, 6-Chloro-N4-((4-iodo-3,5-dimethylpyridin-2-yl)methyl)pyrimidine-2,4-diamine]
98	391	–	391	–	CCCCCCN(Cc1ncc(C)c(OC)c1C)c1cc(Cl)nc(N)n1 [SBI-0640609, 6-Chloro-N4-hexyl-N4-((4-methoxy-3,5-dimethylpyridin-2-yl)methyl)pyrimidine-2,4-diamine]
538	2150	–	2150	–	Cc1cnc(CN(C)c2cc(Cl)nc(N)n2)c(C)c1Cl [SBI-0639899, 6-Chloro-N4-((4-chloro-3,5-dimethylpyridin-2-yl)methyl)-N4-methylpyrimidine-2,4-diamine]
423	1690	–	1690	–	COc1c(C)cnc(CN(CCN2CCOCC2)c2cc(Cl)nc(N)n2)c1C [SBI-0640611, 6-Chloro-N4-((4-methoxy-3,5-dimethylpyridin-2-yl)methyl)-N4-(2-morpholinoethyl)pyrimidine-2,4-diamine]
1000	4000	61	7500	7	COc1c(C)cnc(CNc2cc(Cl)nc(N)n2)c1C [SBI-0206665]
> 2500	> 10000	19	–	4	COc1c(C)cnc(CNc2nc(N)nc3[nH]cnc23)c1C [SBI-0639182]
275	1100	–	1100	–	CCCN(Cc1ncc(C)c(OC)c1C)c1cc(Cl)nc(N)n1 [SBI-0639350, 6-Chloro-N4-((4-methoxy-3,5-dimethylpyridin-2-yl)methyl)-N4-propylpyrimidine-2,4-diamine]
718	2870	–	2870	–	C=CCN(Cc1ncc(C)c(OC)c1C)c1cc(Cl)nc(N)n1 [SBI-0639355, N4-Allyl-6-chloro-N4-((4-methoxy-3,5-dimethylpyridin-2-yl)methyl)pyrimidine-2,4-diamine]
